From patent publication US9593149B2, “Amylin and calcitonin receptor agonist” (Novo Nordisk A/S, priority 2014, dated 2017)
Values after ≈ are worked out from the molar mass of the structure shown. Numbered stars: 1 amine (or outer) side, 2 acyl side, 3 side chain; on linkers, the order of the positions; unused ones are H or OH. Peptide text beside a SMILES is read from it. * marks the point of attachment. C20 diacid = O=C(O)CCCCCCCCCCCCCCCCCCC(=O)*; C18 diacid = O=C(O)CCCCCCCCCCCCCCCCC(=O)*; γGlu = O=C(O)[C@H](CCC(=O)[*:2])N[*:1]; C12 diacid = O=C(O)CCCCCCCCCCC(=O)*

Experiments:
[1] = Assay (IX) pK, T½ in mini-pig; assay type: in vivo, Göttingen mini-pigs; conditions: i.v.
Description: Assay (IX)—pK—Determination of T½ in Mini-Pig
Pharmacokinetic (PK) studies in Göttingen mini-pigs were conducted in order to determine the T½ of the mimylin compound according to the Examples as indicated after i.v. administration.
T½ values of the amylin analogues of the invention is determined by pharmacokinetic studies in female Göttingen mini-pigs from Ellegaard Göttingen Minipigs ApS and the principles of laboratory animal care are followed.
An acclimatisation period of approximately 6-10 days was allowed before the animals entered the study. At start of the acclimatisation period the mini-pigs were about 5 to 12 months old and in the weight range of 15-35 kg. The mini-pigs had two central venous catheters inserted which were used for blood sampling.
The studies were conducted in an animal room which was illuminated to give a cycle of approximately 12 hours light and 12 hours darkness. The animals were housed individually. The animals had free access to domestic quality drinking water during the study, and no food restrictions applied for PK studies. The animals were weighed on arrival and on the days of dosing.
In the present studies the test substances were administered intravenously in approximately 5 nmol/kg dose. The animals received a single intravenous injection in one central venous catheter and blood sampling was performed from the other catheter, where possible. Each test substance was given to typically three but in some cases two or four animals.
A full plasma concentration-time profile, employing 12-16 sampling points, was obtained from each animal. In example blood samples were collected according to the following schedule:
After Intravenous Administration:
Pre-dose (0), 0.5, 1, 2, 4, 6, 8, 12, 24, 48, 72, 96, 120, 168 and 240 hours after injection. In some cases also additional blood samples up to 288 hours post injection were taken.
At each sampling time, 0.5 to 2 ml of blood was drawn from each animal. The blood samples were taken via the central venous catheter.
The 0.8 mL blood samples were collected into EDTA test tubes (8 mM EDTA). Blood samples were kept on ice for max 20 min. before centrifugation. Plasma was separated using centrifugation (i.e. at 4° C., 10 min., 2000G) and was immediately transferred to Micronic tubes on dry ice. Approximately 200 μl plasma was transferred to each Micronic tube. The plasma was stored at −20° C. until assayed. The plasma samples were assayed for the content of compound using LCMS.
The plasma concentration-time profiles were analysed by a non-compartmental pharmacokinetic analysis (NCA) using Phoenix WinNonlin 6.3 (Pharsight Inc., Mountain View, Calif., USA). NCA was performed using the individual plasma concentration-time profiles from each animal. T½ is the terminal half-life=In2/λz and was determined from λz, the first order rate constant associated with the terminal (log-linear) portion of the curve, estimated by linear regression of time vs. log concentration.
MS-Method for Amylin and Mimylin Quantification
40 μl plasma is diluted with 120 μl 66.67% EtOH+1% HCOOH and mixed. Centrifuged for 20 min. at 13000 rpm, 4° C. The supernatant is analyzed by an LC-MS method on a Sciex API 3000 and quantitated with a standard made up in plasma

rat calcitonin receptor = target: T1, rat calcitonin receptor (Rattus norvegicus, UniProt P32214); experiment: Assay (VIII) binding to the rat calcitonin receptor; conditions: membranes; read-out: rCT-R binding IC50
T1 construct: expressed in transfected cells; host or cells: BHK tk'ts 13 (transient, FuGENE 6)
T1 sequence (P32214 25-479 isoform P32214-2 limits assumed): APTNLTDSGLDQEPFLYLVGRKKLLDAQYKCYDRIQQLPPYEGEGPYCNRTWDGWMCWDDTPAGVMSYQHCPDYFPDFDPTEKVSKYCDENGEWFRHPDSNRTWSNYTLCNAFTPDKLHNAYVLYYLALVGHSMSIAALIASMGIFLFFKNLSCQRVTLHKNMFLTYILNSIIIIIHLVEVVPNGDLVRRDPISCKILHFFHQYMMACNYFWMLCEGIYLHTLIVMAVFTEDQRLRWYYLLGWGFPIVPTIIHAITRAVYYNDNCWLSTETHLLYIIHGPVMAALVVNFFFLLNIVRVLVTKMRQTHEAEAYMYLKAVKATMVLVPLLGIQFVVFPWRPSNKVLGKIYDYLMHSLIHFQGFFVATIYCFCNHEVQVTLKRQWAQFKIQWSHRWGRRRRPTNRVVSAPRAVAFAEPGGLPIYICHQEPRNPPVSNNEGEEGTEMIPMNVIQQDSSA
Outline: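 Affinity given as IC50 from a one-site competition fit of bound radioactivity, counted by scintillation after cold HBSS washes and NaOH/SDS lysis. Membranes came from BHK tk'ts 13 cells transiently expressing the rat receptor; other conditions followed the human calcitonin receptor protocol.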

[2] = Assay (IV) determination of solubility; assay type: physicochemical
Description: Assay (IV)—Determination of Solubility
The mimylin peptide was dissolved in water at ˜500 nmol/ml and mixed 1:1 with a series of buffers (100 mM glycylglycine pH 3.0, 100 mM glycylglycine pH 4.0, 100 mM glycylglycine pH 5.0, 100 mM bistrispropane pH 6.0, 100 mM bistrispropane pH 6.5, 100 mM bistrispropane pH 7.0, 100 mM bistrispropane pH 7.5, 100 mM bistrispropane pH 8.0).

PK mini pig iv T½ [1] [h] | IC50 (rat calcitonin receptor) [nM] | Solubility ([2]; pH 3.0) | Solubility ([2]; pH 4.0) | Solubility ([2]; pH 5.0) | Solubility ([2]; pH 6.0) | Solubility ([2]; pH 6.5) | Solubility ([2]; pH 7.0) | Solubility ([2]; pH 7.5) | Solubility ([2]; pH 8.0) | solubility at 18 h ([2]; bistrispropane buffer, pH 6.5) [µM] | solubility at 18 h ([2]; pH 5.0) [µM] | Compound
88 | 0.202 | ≧200 μM | ≧200 μM | ≧200 μM | ≧200 μM | ≧200 μM | ≧200 μM | ≧200 μM | ≧200 μM |  |  | CC(C)C[C@H](NC(=O)[C@H](C)NC(=O)[C@H](C)NC(=O)[C@@H](NC(=O)[C@H](CO)NC(=O)[C@H](CC(C)C)NC(=O)[C@H](CCC(=O)O)NC(=O)[C@H](CO)NC(=O)[C@H](C)NC(=O)CC[C@H](NC(=O)CCCCCCCCCCCCCCCCCCC(=O)O)C(=O)O)[C@@H](C)O)C(=O)NCC(=O)N[C@@H](CCCNC(=N)N)C(=O)N[C@@H](CC(C)C)C(=O)N[C@@H](CO)C(=O)N[C@@H](C)C(=O)N[C@@H](CCC(=O)O)C(=O)N[C@@H](CC(C)C)C(=O)N[C@@H](Cc1cnc[nH]1)C(=O)N[C@@H](CCC(=O)O)C(=O)N[C@@H](CC(C)C)C(=O)N[C@@H](C)C(=O)N[C@H](C(=O)N[C@@H](Cc1ccc(O)cc1)C(=O)N1CCC[C@H]1C(=O)N[C@@H](CCCNC(=N)N)C(=O)N[C@H](C(=O)N[C@@H](CCC(=O)O)C(=O)N[C@H](C(=O)NCC(=O)N[C@@H](CO)C(=O)NCC(=O)N[C@@H](CO)C(=O)N1CCC[C@H]1C(N)=O)[C@@H](C)O)[C@@H](C)O)[C@@H](C)O [compound 56, [N-terminal(C20 diacid-gGlu), des1, 23Y, 30S, 31G]mimylin] ({C20 diacid-γGlu}-ASELSTAALGRLSAELHELATYPRTETGSGSP-NH2)
108 |  | ≧200 μM | ≧200 μM | ≧200 μM | ≧200 μM | ≧200 μM | ≧200 μM | ≧200 μM | ≧200 μM |  |  | CC(C)C[C@H](NC(=O)[C@H](C)NC(=O)[C@H](C)NC(=O)[C@@H](NC(=O)[C@H](CO)NC(=O)[C@H](CC(C)C)NC(=O)[C@H](CCC(=O)O)NC(=O)[C@H](CO)NC(=O)[C@H](C)NC(=O)[C@H](CCC(=O)O)NC(=O)CCCCCCCCCCCCCCCCCCC(=O)O)[C@@H](C)O)C(=O)NCC(=O)N[C@@H](CCCNC(=N)N)C(=O)N[C@@H](CC(C)C)C(=O)N[C@@H](CO)C(=O)N[C@@H](C)C(=O)N[C@@H](CCC(=O)O)C(=O)N[C@@H](CC(C)C)C(=O)N[C@@H](Cc1cnc[nH]1)C(=O)N[C@@H](CCC(=O)O)C(=O)N[C@@H](CC(C)C)C(=O)N[C@@H](C)C(=O)N[C@H](C(=O)N[C@@H](CC(C)C)C(=O)N1CCC[C@H]1C(=O)N[C@@H](CCCNC(=N)N)C(=O)N[C@H](C(=O)N[C@@H](CCC(=O)O)C(=O)N[C@H](C(=O)NCC(=O)N[C@@H](CO)C(=O)NCC(=O)N[C@@H](CO)C(=O)N1CCC[C@H]1C(N)=O)[C@@H](C)O)[C@@H](C)O)[C@@H](C)O [compound 22, [N-terminal(C20 diacid), 30S, 31G]mimylin] ({C20 diacid}-EASELSTAALGRLSAELHELATLPRTETGSGSP-NH2)
1 |  | ≧200 μM | ≧200 μM | ≧200 μM | ≧200 μM |  | ≧200 μM | ≧200 μM | ≧200 μM | ≥ 200 |  | CC(C)C[C@H](NC(=O)[C@H](C)NC(=O)[C@H](C)NC(=O)[C@@H](NC(=O)[C@H](CO)NC(=O)[C@H](CC(C)C)NC(=O)[C@H](CCC(=O)O)NC(=O)[C@H](CO)NC(=O)[C@H](C)NC(=O)[C@H](CCC(=O)O)NC(=O)CCCCCCCCCCC(=O)O)[C@@H](C)O)C(=O)NCC(=O)N[C@@H](CCCNC(=N)N)C(=O)N[C@@H](CC(C)C)C(=O)N[C@@H](CO)C(=O)N[C@@H](C)C(=O)N[C@@H](CCC(=O)O)C(=O)N[C@@H](CC(C)C)C(=O)N[C@@H](Cc1cnc[nH]1)C(=O)N[C@@H](CCC(=O)O)C(=O)N[C@@H](CC(C)C)C(=O)N[C@@H](C)C(=O)N[C@H](C(=O)N[C@@H](CC(C)C)C(=O)N1CCC[C@H]1C(=O)N[C@@H](CCCNC(=N)N)C(=O)N[C@H](C(=O)N[C@@H](CCC(=O)O)C(=O)N[C@H](C(=O)NCC(=O)N1CCC[C@H]1C(=O)N[C@@H](CCC(=O)O)C(=O)N[C@@H](CO)C(=O)N1CCC[C@H]1C(N)=O)[C@@H](C)O)[C@@H](C)O)[C@@H](C)O [compound 6, [N-terminal(C12 diacid)]mimylin] ({C12 diacid}-EASELSTAALGRLSAELHELATLPRTETGPESP-NH2)
32 | 0.013 | ≧200 μM | ≧200 μM |  | ≧200 μM | ≧200 μM | ≧200 μM | ≧200 μM | ≧200 μM |  | 149 (≈ 569 µg/mL) | CC(C)C[C@H](NC(=O)CNC(=O)[C@H](CO)NC(=O)[C@H](C)NC(=O)CC[C@H](NC(=O)CCCCCCCCCCCCCCCCC(=O)O)C(=O)O)C(=O)N[C@@H](CO)C(=O)N[C@H](C(=O)N[C@@H](C)C(=O)N[C@@H](C)C(=O)N[C@@H](CC(C)C)C(=O)NCC(=O)N[C@@H](CCCNC(=N)N)C(=O)N[C@@H](CC(C)C)C(=O)N[C@@H](CO)C(=O)N[C@@H](CCC(N)=O)C(=O)N[C@@H](CCC(=O)O)C(=O)N[C@@H](CC(C)C)C(=O)N[C@@H](Cc1cnc[nH]1)C(=O)N[C@@H](CCC(=O)O)C(=O)N[C@@H](CC(C)C)C(=O)N[C@@H](CCC(N)=O)C(=O)N[C@H](C(=O)N[C@@H](Cc1ccc(O)cc1)C(=O)N1CCC[C@H]1C(=O)N[C@@H](CCCNC(=N)N)C(=O)N[C@H](C(=O)N[C@@H](CCC(=O)O)C(=O)N[C@H](C(=O)NCC(=O)N[C@@H](CO)C(=O)NCC(=O)N[C@H](C(=O)N[C@@H](Cc1ccc(O)cc1)C(N)=O)[C@@H](C)O)[C@@H](C)O)[C@@H](C)O)[C@@H](C)O)[C@@H](C)O [compound 110, [N-terminal(C18 diacid-gGlu), des1, 4G, 15Q, 21Q, 23Y, 30S, 31G, 32T, 33Y]mimylin] ({C18 diacid-γGlu}-ASGLSTAALGRLSQELHELQTYPRTETGSGTY-NH2)
